{"source": "ChEMBL document CHEMBL6109129", "about": "“Discovery of Conformationally Constrained Dihydro Benzo-Indole Derivatives as Metallo-β-Lactamase Inhibitors to Tackle Multidrug-Resistant Bacterial Infections” (J Med Chem, 2025)", "key": {"Escherichia coli [1]": {"system": "Escherichia coli", "test": "Synergistic antibacterial activity against carbapenem-resistant Escherichia coli BAA-2471 assessed as reduction in microbial growth at 16 ug/ml measured after 16 to 18 hrs in presence of imipenem by microbial dilution method", "format": "functional", "details": "dose 16 µg/ml, time 16-18 hrs"}, "Escherichia coli [2]": {"system": "Escherichia coli", "test": "Synergistic antibacterial activity against carbapenem-resistant Escherichia coli 565988 assessed as reduction in microbial growth at 4 ug/ml measured after 16 to 18 hrs in presence of meropenem by microbial dilution method", "format": "functional", "details": "dose 4 µg/ml, time 16-18 hrs"}, "Enterobacter cloacae [3]": {"system": "Enterobacter cloacae", "test": "Synergistic antibacterial activity against carbapenem-resistant Enterobacter cloacae BAA-2468 assessed as reduction in microbial growth at 16 ug/ml measured after 16 to 18 hrs in presence of imipenem by microbial dilution method", "format": "functional", "details": "dose 16 µg/ml, time 16-18 hrs"}, "Klebsiella pneumoniae [4]": {"system": "Klebsiella pneumoniae", "test": "Synergistic antibacterial activity against carbapenem-resistant Klebsiella pneumoniae 538961 assessed as reduction in microbial growth at 16 ug/ml measured after 16 to 18 hrs in presence of meropenem by microbial dilution method", "format": "functional", "details": "dose 16 µg/ml, time 16-18 hrs"}, "[5]": {"test": "Metabolic stability in human liver microsomes assessed as intrinsic clearance at 1 uM preincubated for 5 mins followed by NADPH addition and measured up to 60 mins by LC-MS/MS analysis", "format": "ADME, Microsome", "details": "time < 65 min, read-out: CLH"}, "Escherichia coli [6]": {"system": "Escherichia coli", "test": "Synergistic antibacterial activity against carbapenem-resistant Escherichia coli 541588 assessed as reduction in microbial growth at 4 ug/ml measured after 16 to 18 hrs in presence of meropenem by microbial dilution method", "format": "functional", "details": "dose 4 µg/ml, time 16-18 hrs"}, "Escherichia coli [7]": {"system": "Escherichia coli", "test": "Synergistic antibacterial activity against carbapenem-resistant Escherichia coli 571307 assessed as reduction in microbial growth at 16 ug/ml measured after 16 to 18 hrs in presence of imipenem by microbial dilution method", "format": "functional", "details": "dose 16 µg/ml, time 16-18 hrs"}, "[8]": {"test": "Metabolic stability in mouse liver microsomes assessed as intrinsic clearance at 1 uM preincubated for 5 mins followed by NADPH addition and measured up to 60 mins by LC-MS/MS analysis", "format": "ADME, Microsome", "details": "time < 65 min, read-out: CLH"}, "Escherichia coli [9]": {"system": "Escherichia coli", "test": "Synergistic antibacterial activity against carbapenem-resistant Escherichia coli 565988 assessed as reduction in microbial growth at 4 ug/ml measured after 16 to 18 hrs in presence of imipenem by microbial dilution method", "format": "functional", "details": "dose 4 µg/ml, time 16-18 hrs"}, "Klebsiella pneumoniae [10]": {"system": "Klebsiella pneumoniae", "test": "Synergistic antibacterial activity against carbapenem-resistant Klebsiella pneumoniae 571278 assessed as reduction in microbial growth at 16 ug/ml measured after 16 to 18 hrs in presence of meropenem by microbial dilution method", "format": "functional", "details": "dose 16 µg/ml, time 16-18 hrs"}, "Klebsiella pneumoniae [11]": {"system": "Klebsiella pneumoniae", "test": "Synergistic antibacterial activity against carbapenem-resistant Klebsiella pneumoniae BAA-2473 assessed as reduction in microbial growth at 0.5 ug/ml measured after 16 to 18 hrs in presence of meropenem by microbial dilution method", "format": "functional", "details": "dose 0.5 µg/ml, time 16-18 hrs"}, "Klebsiella pneumoniae [12]": {"system": "Klebsiella pneumoniae", "test": "Synergistic antibacterial activity against carbapenem-resistant Klebsiella pneumoniae 571278 assessed as reduction in microbial growth at 4 ug/ml measured after 16 to 18 hrs in presence of imipenem by microbial dilution method", "format": "functional", "details": "dose 4 µg/ml, time 16-18 hrs"}, "Escherichia coli [13]": {"system": "Escherichia coli", "test": "Synergistic antibacterial activity against carbapenem-resistant Escherichia coli BAA-2469 assessed as reduction in microbial growth at 0.5 ug/ml measured after 16 to 18 hrs in presence of imipenem by microbial dilution method", "format": "functional", "details": "dose 0.5 µg/ml, time 16-18 hrs"}, "Enterobacter cloacae [14]": {"system": "Enterobacter cloacae", "test": "Synergistic antibacterial activity against carbapenem-resistant Enterobacter cloacae BAA-2468 assessed as reduction in microbial growth at 16 ug/ml measured after 16 to 18 hrs in presence of meropenem by microbial dilution method", "format": "functional", "details": "dose 16 µg/ml, time 16-18 hrs"}, "Escherichia coli [15]": {"system": "Escherichia coli", "test": "Synergistic antibacterial activity against carbapenem-resistant Escherichia coli 567975 assessed as reduction in microbial growth at 16 ug/ml measured after 16 to 18 hrs in presence of meropenem by microbial dilution method", "format": "functional", "details": "dose 16 µg/ml, time 16-18 hrs"}, "[16]": {"target": "Metallo-beta-lactamase type 2 (Bacteria) (UniProt C7C422)", "sequence (C7C422 whole entry)": "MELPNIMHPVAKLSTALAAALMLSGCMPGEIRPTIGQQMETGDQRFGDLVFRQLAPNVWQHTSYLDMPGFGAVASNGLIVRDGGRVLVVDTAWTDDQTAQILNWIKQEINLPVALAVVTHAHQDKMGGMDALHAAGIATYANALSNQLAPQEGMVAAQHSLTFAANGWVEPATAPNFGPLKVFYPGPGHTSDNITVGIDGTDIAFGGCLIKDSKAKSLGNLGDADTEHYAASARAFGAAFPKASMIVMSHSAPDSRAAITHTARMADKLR", "test": "Induction of thermal stabilization of NDM-1 (unknown origin) assessed as melting temperature at 50 uM by differential scanning fluorimetry analysis"}, "Klebsiella pneumoniae [17]": {"system": "Klebsiella pneumoniae", "test": "Synergistic antibacterial activity against carbapenem-resistant Klebsiella pneumoniae 571278 assessed as reduction in microbial growth at 16 ug/ml measured after 16 to 18 hrs in presence of imipenem by microbial dilution method", "format": "functional", "details": "dose 16 µg/ml, time 16-18 hrs"}, "Klebsiella pneumoniae [18]": {"system": "Klebsiella pneumoniae", "test": "Synergistic antibacterial activity against carbapenem-resistant Klebsiella pneumoniae BAA-2473 assessed as reduction in microbial growth at 16 ug/ml measured after 16 to 18 hrs in presence of imipenem by microbial dilution method", "format": "functional", "details": "dose 16 µg/ml, time 16-18 hrs"}, "Escherichia coli [19]": {"system": "Escherichia coli", "test": "Synergistic antibacterial activity against carbapenem-resistant Escherichia coli BAA-2471 assessed as reduction in microbial growth at 16 ug/ml measured after 16 to 18 hrs in presence of meropenem by microbial dilution method", "format": "functional", "details": "dose 16 µg/ml, time 16-18 hrs"}, "[20]": {"system": "Klebsiella pneumoniae subsp. pneumoniae", "test": "Synergistic antibacterial activity against carbapenem-resistant Klebsiella pneumoniae subsp. pneumoniae BAA-2470 assessed as reduction in microbial growth at 8 ug/ml measured after 16 to 18 hrs in presence of meropenem by microbial dilution method", "format": "functional", "details": "dose 8 µg/ml, time 16-18 hrs"}, "[21]": {"test": "Inhibition of IMP-1 (unknown origin) using FC5 as substrate preincubated for 10 mins followed by substrate addition and measured immediately by fluorescence based analysis", "set-up": "species or system Bacteria"}, "Klebsiella pneumoniae [22]": {"system": "Klebsiella pneumoniae", "test": "Synergistic antibacterial activity against carbapenem-resistant Klebsiella pneumoniae 565345 assessed as reduction in microbial growth at 4 ug/ml measured after 16 to 18 hrs in presence of meropenem by microbial dilution method", "format": "functional", "details": "dose 4 µg/ml, time 16-18 hrs"}, "Escherichia coli [23]": {"system": "Escherichia coli", "test": "Synergistic antibacterial activity against carbapenem-resistant Escherichia coli BAA-2469 assessed as reduction in microbial growth at 16 ug/ml measured after 16 to 18 hrs in presence of meropenem by microbial dilution method", "format": "functional", "details": "dose 16 µg/ml, time 16-18 hrs"}, "[24]": {"test": "Apparent permeability the compound in PBS buffer at pH 7.4 measured after 5 hrs by LC-MS/MS analysis", "format": "ADME", "details": "not told"}, "[25]": {"test": "Cytotoxicity in HEK293 cells assessed as inhibition of cell growth measured after 24 hrs by MTT assay", "format": "toxicity, cell-based", "details": "human"}, "[26]": {"target": "Metallo-beta-lactamase type 2 (Bacteria) (UniProt C7C422)", "test": "Induction of thermal stabilization of NDM-1 (unknown origin) assessed as melting temperature at 25 uM by differential scanning fluorimetry analysis"}, "Klebsiella pneumoniae [27]": {"system": "Klebsiella pneumoniae", "test": "Synergistic antibacterial activity against carbapenem-resistant Klebsiella pneumoniae 565345 assessed as reduction in microbial growth at 16 ug/ml measured after 16 to 18 hrs in presence of meropenem by microbial dilution method", "format": "functional", "details": "dose 16 µg/ml, time 16-18 hrs"}, "Escherichia coli [28]": {"system": "Escherichia coli", "test": "Synergistic antibacterial activity against carbapenem-resistant Escherichia coli BAA-2471 assessed as reduction in microbial growth at 0.5 ug/ml measured after 16 to 18 hrs in presence of imipenem by microbial dilution method", "format": "functional", "details": "dose 0.5 µg/ml, time 16-18 hrs"}, "[29]": {"test": "Plasma protein binding in human assessed as unbound fraction at 10 uM measured after 5 hrs by LC-MS/MS analysis", "format": "ADME, cell-free"}, "Escherichia coli [30]": {"system": "Escherichia coli", "test": "Synergistic antibacterial activity against carbapenem-resistant Escherichia coli 571307 assessed as reduction in microbial growth at 16 ug/ml measured after 16 to 18 hrs in presence of meropenem by microbial dilution method", "format": "functional", "details": "dose 16 µg/ml, time 16-18 hrs"}, "Enterobacter cloacae [31]": {"system": "Enterobacter cloacae", "test": "Synergistic antibacterial activity against carbapenem-resistant Enterobacter cloacae BAA-2468 assessed as reduction in microbial growth at 0.5 ug/ml measured after 16 to 18 hrs in presence of imipenem by microbial dilution method", "format": "functional", "details": "dose 0.5 µg/ml, time 16-18 hrs"}, "[32]": {"test": "Inhibition of VIM-1 (unknown origin) using FC5 as substrate preincubated for 10 mins followed by substrate addition and measured immediately by fluorescence based analysis", "set-up": "species or system Bacteria"}}, "data": [{"smiles": "COc1ccc(Cl)cc1-c1c(C(=O)O)[nH]c2c1CCc1ccccc1-2", "values": [{"measurement": "MIC", "setting": "Escherichia coli [1]", "result": 8, "unit": "mg/L"}, {"measurement": "MIC", "setting": "Escherichia coli [2]", "result": 1, "unit": "mg/L"}, {"measurement": "MIC", "setting": "Enterobacter cloacae [3]", "result": 32, "unit": "mg/L"}, {"measurement": "MIC", "setting": "Klebsiella pneumoniae [4]", "result": 4, "unit": "mg/L"}, {"measurement": "microsomal CLint at 1 µM", "setting": "[5]", "result": 9.8, "unit": "µL/min/mg"}, {"measurement": "MIC", "setting": "Escherichia coli [6]", "result": 8, "unit": "mg/L"}, {"measurement": "MIC", "setting": "Escherichia coli [7]", "result": 2, "unit": "mg/L"}, {"measurement": "microsomal CLint at 1 µM", "setting": "[8]", "result": 12.9, "unit": "µL/min/mg"}, {"measurement": "MIC", "setting": "Escherichia coli [9]", "result": 1, "unit": "mg/L"}, {"measurement": "MIC", "setting": "Klebsiella pneumoniae [10]", "result": 16, "unit": "mg/L"}, {"measurement": "MIC", "setting": "Klebsiella pneumoniae [11]", "result": "> 64", "unit": "mg/L"}, {"measurement": "MIC", "setting": "Klebsiella pneumoniae [12]", "result": 8, "unit": "mg/L"}, {"measurement": "MIC", "setting": "Escherichia coli [13]", "result": 32, "unit": "mg/L"}, {"measurement": "MIC", "setting": "Enterobacter cloacae [14]", "result": 4, "unit": "mg/L"}, {"measurement": "MIC", "setting": "Escherichia coli [15]", "result": "< 0.5", "unit": "mg/L"}, {"measurement": "Tm", "setting": "[16]", "result": 20, "unit": "°C"}, {"measurement": "MIC", "setting": "Klebsiella pneumoniae [17]", "result": 4, "unit": "mg/L"}, {"measurement": "MIC", "setting": "Klebsiella pneumoniae [18]", "result": 8, "unit": "mg/L"}, {"measurement": "MIC", "setting": "Escherichia coli [19]", "result": 16, "unit": "mg/L"}, {"measurement": "MIC", "setting": "[20]", "result": 8, "unit": "mg/L"}, {"measurement": "IC50", "setting": "[21]", "result": 0.014, "unit": "µM"}, {"measurement": "MIC", "setting": "Klebsiella pneumoniae [22]", "result": 4, "unit": "mg/L"}, {"measurement": "MIC", "setting": "Escherichia coli [23]", "result": 2, "unit": "mg/L"}, {"measurement": "Papp at 5 h", "setting": "[24]", "result": 140, "unit": "nm/s"}, {"measurement": "IC50 at 24 h", "setting": "[25]", "result": "> 200", "unit": "µM"}, {"measurement": "Tm", "setting": "[26]", "result": 19, "unit": "°C"}, {"measurement": "MIC", "setting": "Klebsiella pneumoniae [27]", "result": 1, "unit": "mg/L"}, {"measurement": "MIC", "setting": "Escherichia coli [28]", "result": 32, "unit": "mg/L"}, {"measurement": "fraction unbound at 5 h, 10 µM", "setting": "[29]", "result": 0.992}, {"measurement": "MIC", "setting": "Escherichia coli [30]", "result": 0.5, "unit": "mg/L"}, {"measurement": "MIC", "setting": "Enterobacter cloacae [31]", "result": "> 64", "unit": "mg/L"}, {"measurement": "IC50", "setting": "[32]", "result": 0.021, "unit": "µM"}]}]}
